Where no end group is shown, it is not given here.
Tests used:
S. typhimurium 7731 = format: cell-based, Salmonella typhimurium; settings: 7731, 24 h
How it was run: (§1)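 Using mid-log cultures at 0.5–1 × 10^6 CFU mL^–1 in MHB, peptides serially diluted in 0.2% BSA were tested over 24 h at 37°C. Inhibition of 95% (A492) set the MIC; >99.9% killing after overnight agar plating set the MBC.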

S. typhimurium 14028 = format: cell-based, Salmonella typhimurium; settings: 14028, 24 h
How it was run: as §1

S. epidermidis 12228 = format: cell-based, Staphylococcus epidermidis; settings: 12228, 24 h
How it was run: as §1

E. coli O78 = format: cell-based, Escherichia coli; settings: O78, 24 h
How it was run: as §1

E. coli UB1005 = format: cell-based, Escherichia coli; settings: UB1005, 24 h
How it was run: as §1

E. coli 25922 = format: cell-based, Escherichia coli; settings: 25922, 24 h
How it was run: as §1

E. coli ATCC 25922 = test: Salt sensitivity assay (MIC); format: cell-based, Escherichia coli; settings: for MIC, FeCl3: 4 μM FeCl3; for MIC, NH4Cl: 6 μM NH4Cl; for MIC, ZnCl2: 8 μM ZnCl2; for MIC, MgCl2: 1 mM MgCl2; for MIC, CaCl2: 2 mM CaCl2; for MIC, KCl: 4.5 mM KCl; for MIC, NaCl: 150 mM NaCl; for MIC, Control: no added salt, three independent assays
How it was run: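 The salt sensitivity of peptides was tested against E. coli ATCC 25922 using a modified NCCLS broth microdilution MIC method. Mid-log bacteria were diluted in MHB to 0.5–1 × 10^6 CFU mL^–1 and mixed in equal volumes with peptides serially diluted in 0.2% BSA in 96-well plates. Physiological salt was added where specified, and the assay was done three independent times.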

Gram-negative bacteria [1] = settings: for GM MIC: geometric mean of MICs, 9 Gram-negative strains (Table 2); for TI, Gram-negative bacteria: therapeutic index TI = MHC/GM MIC
How it was run: (§2)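 Broth microdilution adapted from NCCLS: mid-log bacteria diluted in MHB to 0.5–1 × 10^6 CFU mL^–1, mixed with peptides serially diluted in 0.2% BSA. After 24 h at 37°C, MIC taken as the lowest concentration inhibiting 95% of growth by absorbance at 492 nm. Assays repeated more than 3 times.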

Gram-positive bacteria [2] = settings: for GM MIC: geometric mean of MICs, 7 Gram-positive strains (Table 2); for TI, Gram-positive bacteria: therapeutic index TI = MHC/GM MIC
How it was run: as §2

MRSA 43300 = format: cell-based, methicillin-resistant S. aureus; settings: 43300, 24 h
How it was run: as §1

P. aeruginosa 27853 = format: cell-based, Pseudomonas aeruginosa; settings: 27853, 24 h
How it was run: as §1

[3] = system: Listeria monocytogenes CGMCC 1.1075; format: cell-based; settings: CGMCC 1.1075, 24 h
How it was run: as §1

B. subtilis 63501 = format: cell-based, Bacillus subtilis; settings: 63501, 24 h
How it was run: as §1

E. faecalis 29212 = format: cell-based, Enterococcus faecalis; settings: 29212, 24 h
How it was run: as §1

E. coli K99 = settings: for MIC: MHB, 24 h 37°C, 95% growth inhibition; for MBC: value in brackets, >99.9% of cells killed
Protocol: (§3) The antimicrobial activities of the peptides were measured using a method adapted from the National Committee for Clinical Laboratory Standards (NCCLS) with some modifications ([Chou et al., 2016]). The specific procedure for these assays has been previously described. In brief, the bacterial cells were grown to a mid-logarithmic phase and diluted in MHB to an ultimate concentration of 0.5–1 × 10^6 CFU mL^–1. Subsequently, the peptides were consecutively diluted in a 0.2% BSA solution and then added to a bacterial solution in a 96-well plate at identical volumes. After incubation for 24 h at 37°C, the MICs were determined to be the lowest peptide concentration that inhibited 95% of the bacterial growth by monitoring the absorbance at 492 nm using a microplate reader. Subsequently, 50 μL of each incubation mixture was further transferred to agar plates and incubated overnight. […] Every assay was reproduced more than 3 times.

E. coli K88 = settings: for MIC: MHB, 24 h 37°C, 95% growth inhibition; for MBC: value in brackets, >99.9% of cells killed
Protocol: as §3

Gram-positive bacteria [4] = settings: geometric mean of MBCs, 7 Gram-positive strains (Table 2)
S. aureus 29213 [5] = test: Salt sensitivity assay (MIC); format: cell-based, Staphylococcus aureus; settings: for MIC, FeCl3: 4 μM FeCl3; for MIC, NH4Cl: 6 μM NH4Cl; for MIC, ZnCl2: 8 μM ZnCl2; for MIC, MgCl2: 1 mM MgCl2; for MIC, CaCl2: 2 mM CaCl2; for MIC, KCl: 4.5 mM KCl; for MIC, NaCl: 150 mM NaCl; for MIC, Control: no added salt, three independent assays
How it was run: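 MICs determined by broth microdilution in MHB with 0.5–1 × 10^6 CFU/mL, peptides serially diluted in 0.2% BSA, 24 h at 37°C. Medium supplemented with physiological salts (150 mM NaCl, 4.5 mM KCl, 6 μM NH4Cl, 8 μM ZnCl2, 1 mM MgCl2, 2mM CaCl2, 4 μM FeCl3). MIC = lowest concentration inhibiting 95% growth (A492).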

S. aureus 25923 = format: cell-based, Staphylococcus aureus; settings: 25923, 24 h
How it was run: as §1

S. aureus 29213 [6] = format: cell-based, Staphylococcus aureus; settings: 29213, 24 h
How it was run: as §1

S. pullorum 7913 = format: cell-based, Salmonella pullorum; settings: 7913, 24 h
How it was run: as §1

Gram-negative bacteria [7] = settings: geometric mean of MBCs, 9 Gram-negative strains (Table 2)
[8] = system: all of the tested bacterial strains; test: Geometric mean of MICs, all tested bacterial strains; format: cell-based; settings: for GM, All: geometric mean of MICs across all tested strains; for TI, All: therapeutic index TI = MHC/GM MIC
How it was run: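 Mid-log bacteria at 0.5–1 × 10^6 CFU mL^–1 in MHB with peptides serially diluted in 0.2% BSA, 24 h at 37°C. MIC is the lowest concentration giving 95% growth inhibition by A492. MBC is the lowest giving >99.9% kill on agar subculture, and the GM is taken over all strains.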

RLRLRRLLL-NH2 [L9]
4.00: TI, Gram-positive bacteria (Gram-positive bacteria [2])
5.42: TI, All [8]
78.02 µM: GM MBC (Gram-positive bacteria [4])
128 µM: MBC (S. typhimurium 7731) | MBC (S. typhimurium 14028) | MBC (E. coli UB1005)
69.12 µM: GM MBC (Gram-negative bacteria [7])
47.26 µM: GM, All [8]
> 64 µM: MIC (S. epidermidis 12228) | MIC, CaCl2 (E. coli ATCC 25922) | MIC, NaCl (E. coli ATCC 25922) | MIC (P. aeruginosa 27853) | MIC (E. faecalis 29212) | MIC, FeCl3 (S. aureus 29213 [5]) | MIC, NH4Cl (S. aureus 29213 [5]) | MIC, ZnCl2 (S. aureus 29213 [5]) | MIC, MgCl2 (S. aureus 29213 [5]) | MIC, CaCl2 (S. aureus 29213 [5]) | MIC, KCl (S. aureus 29213 [5]) | MIC, NaCl (S. aureus 29213 [5]) | MIC, Control (S. aureus 29213 [5]) | MIC (S. aureus 25923)
64.00 µM: GM MIC (Gram-positive bacteria [2])
>64 µM: MIC (MRSA 43300) | MIC (S. aureus 29213 [6])
16 µM: MIC (E. coli 25922) | MIC, FeCl3 (E. coli ATCC 25922) | MIC, ZnCl2 (E. coli ATCC 25922) | MIC, KCl (E. coli ATCC 25922) | MIC, Control (E. coli ATCC 25922) | MIC [3] | MBC (B. subtilis 63501) | MIC (E. coli K99) | MIC (E. coli K88)
37.33 µM: GM MIC (Gram-negative bacteria [1])
64 µM: MIC (S. typhimurium 7731) | MIC (S. typhimurium 14028) | MBC (E. coli O78) | MIC (E. coli UB1005) | MBC (S. pullorum 7913)
8 µM: MIC (B. subtilis 63501)
32 µM: MIC (E. coli O78) | MBC (E. coli 25922) | MIC, NH4Cl (E. coli ATCC 25922) | MIC, MgCl2 (E. coli ATCC 25922) | MBC [3] | MBC (E. coli K99) | MBC (E. coli K88) | MIC (S. pullorum 7913)
6.86: TI, Gram-negative bacteria (Gram-negative bacteria [1])

LLRLRRRLL-NH2 [L2]
8 µM: MIC (E. coli O78) | MIC (E. coli 25922) | MIC, FeCl3 (E. coli ATCC 25922) | MIC, NH4Cl (E. coli ATCC 25922) | MIC, ZnCl2 (E. coli ATCC 25922) | MIC, Control (E. coli ATCC 25922) | MIC (E. coli K99)
33.42 µM: GM, All [8]
52.50 µM: GM MIC (Gram-positive bacteria [2])
>64 µM: MIC [3]
> 64 µM: MIC (S. epidermidis 12228) | MIC (P. aeruginosa 27853) | MIC (E. faecalis 29212) | MIC, FeCl3 (S. aureus 29213 [5]) | MIC, NH4Cl (S. aureus 29213 [5]) | MIC, ZnCl2 (S. aureus 29213 [5]) | MIC, MgCl2 (S. aureus 29213 [5]) | MIC, CaCl2 (S. aureus 29213 [5]) | MIC, KCl (S. aureus 29213 [5]) | MIC, NaCl (S. aureus 29213 [5]) | MIC, Control (S. aureus 29213 [5]) | MIC (S. aureus 25923)
7.66: TI, All [8]
32 µM: MBC (E. coli UB1005) | MIC, CaCl2 (E. coli ATCC 25922) | MIC, NaCl (E. coli ATCC 25922) | MIC (MRSA 43300) | MBC (E. coli K88) | MBC (S. pullorum 7913)
70.66 µM: GM MBC (Gram-positive bacteria [4])
21.77 µM: GM MIC (Gram-negative bacteria [1])
11.76: TI, Gram-negative bacteria (Gram-negative bacteria [1])
64 µM: MIC (S. typhimurium 7731) | MIC (S. typhimurium 14028) | MBC (MRSA 43300) | MIC (S. aureus 29213 [6])
4.88: TI, Gram-positive bacteria (Gram-positive bacteria [2])
128 µM: MBC (S. typhimurium 7731) | MBC (S. typhimurium 14028) | MBC (S. aureus 29213 [6])
40.32 µM: GM MBC (Gram-negative bacteria [7])
16 µM: MBC (E. coli O78) | MIC (E. coli UB1005) | MBC (E. coli 25922) | MIC, MgCl2 (E. coli ATCC 25922) | MIC, KCl (E. coli ATCC 25922) | MBC (E. coli K99) | MIC (E. coli K88) | MIC (S. pullorum 7913)
2 µM: MIC (B. subtilis 63501)
4 µM: MBC (B. subtilis 63501)
